Results as given in ChEMBL document CHEMBL1148644, “Human PEPT1 pharmacophore distinguishes between dipeptide transport and binding” (J Med Chem, 2006).
Where a SMILES comes first, the peptide text is derived from it.

Tests used:
[1] = target: T1, Solute carrier family 15 member 1 (Homo sapiens, UniProt P46059); test: Binding affinity to human PEPT1 assessed as inhibition of [14C]Gly-Sar uptake in MDCK cells; format: functional, cell-based; details: read-out: IC50
T1 sequence (P46059 whole entry): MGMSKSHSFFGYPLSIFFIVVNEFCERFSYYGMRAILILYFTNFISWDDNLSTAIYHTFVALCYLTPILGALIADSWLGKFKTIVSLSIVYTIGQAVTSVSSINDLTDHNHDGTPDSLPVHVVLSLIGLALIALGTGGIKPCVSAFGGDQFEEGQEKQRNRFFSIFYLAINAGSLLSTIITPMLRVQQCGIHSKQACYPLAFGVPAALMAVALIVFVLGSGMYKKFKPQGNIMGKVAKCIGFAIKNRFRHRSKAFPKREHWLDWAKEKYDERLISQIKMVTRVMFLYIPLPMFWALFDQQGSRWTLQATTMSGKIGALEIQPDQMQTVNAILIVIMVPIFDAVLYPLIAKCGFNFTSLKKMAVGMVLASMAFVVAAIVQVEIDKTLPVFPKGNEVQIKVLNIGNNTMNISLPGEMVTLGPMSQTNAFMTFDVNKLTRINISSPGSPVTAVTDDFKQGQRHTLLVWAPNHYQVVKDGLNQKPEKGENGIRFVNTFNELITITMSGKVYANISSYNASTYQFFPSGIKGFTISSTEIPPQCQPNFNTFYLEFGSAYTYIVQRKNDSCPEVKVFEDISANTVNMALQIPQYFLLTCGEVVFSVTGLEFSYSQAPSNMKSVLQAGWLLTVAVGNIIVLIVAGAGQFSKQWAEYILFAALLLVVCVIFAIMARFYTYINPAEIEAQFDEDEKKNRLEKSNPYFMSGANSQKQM

[2] = target: T1, Solute carrier family 15 member 1; test: Activation of human PEPT1 expressed in MDCK cells; format: functional, cell-based

IC50 [1]: 100 µM | EC50 [2]: 40 µM
SMILES: CC(C)[C@H](N)C(=O)N[C@@H](Cc1c[nH]c2ccccc12)C(=O)O [VALYLTRYPTOPHAN] (H-Val-Trp-OH)
